{
  "source": "patent US20140128472A1",
  "about": "“TREATMENT AND PREVENTION OF DISEASES RELATED TO OXIDATIVE STRESS” (UNIVERSITY OF PÉCS, priority 2011, published 2014)",
  "key": {"Akt (PKB)": {"test_system": "Akt (PKB)", "assay": "Erythropoietin-dependent phosphorylation of Akt (PKB) in 3T3-L1 adipocytes (Western blot)", "assay_type": "cell-based, mouse", "conditions": "25 mM glucose; various concentrations of erythropoietin"}, "3T3-L1 adipocytes": {"test_system": "3T3-L1 adipocytes", "assay": "Insulin-dependent uptake of deoxy-D-glucose 2-[1 2-3H(N)] into 3T3-L1 adipocytes", "assay_type": "cell-based, mouse", "protocol": "(§1) Primary cultures of mouse embryo fibroblasts (3T3-L1) were purchased from ATCC (Manassas, US). Early passages of 3T3-L1 fibroblasts were cultured in Dulbecco's modified Eagle medium ((DMEM, Invitrogen, CAT number: 41966-029; Sigma Aldrich CAT number: D6046) supplemented with 10% Fetal Bovine Serum (Gibco, CAT number: 16170-078), 100 U/ml penicillin and 0.1 mg/ml streptomycin (Gibco, CAT number: 15070-063) and 398 nM p-, m-, or o-Tyr. DMEM contained 25 or 5 mM glucose (depending on the experiment), L-glutamine, and pyruvate. Cells were grown in a humidified incubator at 37° C. and 5% CO2. Differentiation medium consisted of DMEM supplemented with 10% Fetal Bovine Serum (FBS, Gibco, Csertex, Budapest, Hungary, CAT number: 10106-169) (FBS), to which a cocktail was added containing […] isobuthylmethylxanthine (Sigma Aldrich, CAT number: I 5879), 0.17 nM insulin (Sigma Aldrich, CAT number: I 9278) and 250 nM dexamethasone (Sigma Aldrich, CAT number: 861871). From Day 4 onward, cells were maintained in DMEM/10% FBS containing […] insulin with a media change every other day until experimental treatments were initiated. For all treatments, cells were incubated overnight in serum-deprived medium after 90% of the cell population reached the adipocyte phenotype.\nCells were incubated in glucose free DMEM (Gibco, Csertex, Hungary) for 30 minutes, then treated with 2, 20, 200 or 400 nmol/l insulin for 100 minutes. Simultaneously 1 μCi/ml deoxy-D-glucose 2-[1 2-3H(N)] (3.7×104 Bq/ml) (Izotóp Intézet, Hungary) was added to the plates for 100 minutes Cells were scraped into the medium and centrifuged for 5 minutes at 1000 rpm. The sediment was dissolved in 70 μl of lysis-buffer and glucose uptake was assessed by scintillation counting measuring 30 μl of the sample with a Beckman LS 5000 TD counter in counts per minute (CPM) for five minutes each, using an average activity as the outcome. Samples were frozen overnight at −70° C. and protein concentration was measured using a Hitachi spectrophotometer. Results were normalized for protein content (Kaddai2009)."}, "[1]": {"test_system": "thoracic and abdominal aorta, renal and femoral arteries", "assay": "Insulin-induced relaxation of isolated arterial segments after oral tyrosine isomer supplementation of rats", "assay_type": "in vivo, Sprague-Dawley rats", "protocol": "The experiments were carried out with the permission of the Hungarian Local Animal Experiment Committee. Shortly after weaning male CFY rats (a strain of the Sprague-Dawley rat) were placed in individual cages and held on regular diet. After two hours of fasting animals (4-5 week-old, 80-140 g) were loaded with 1.76 mg/die para-, meta- or ortho-tyrosine (p-, m-, o-tyr; Sigma-Aldrich, Inc., St. Louis, Mo. 63178, USA) dissolved in saline or vehicle (saline only) by gavage (per os) six days of the week. After one month treatment, animals were either anaesthetized with ether and were decapitated with a guillotine or p-, m-, o-tyr and vehicle supplementation was discontinued (“washout” period) and they were sacrificed […] (FIG. 8.A). The descending thoracic and abdominal aorta, renal and femoral arteries were removed and cleaned from connective tissue (FIG. 19). Sections were immediately hydrolyzed for HPLC analysis or were used for vascular reactivity studies.\nIn further tyrosine isomer incorporation studies when effects of chronic oral p-Tyr and o-Tyr supplementation of rats on the o-Tyr level and insulin-induced relaxation of isolated arterial segments were studied, 18 Male Sprague-Dawley rats (5-6 week-old) were used. Rats were orally supplied with either 1.76 mg/die of p-Tyr or o-Tyr or vehicle during six days per week for four weeks. […] At the end of four-week treatment, HPLC and vasomotor studies were performed. In another group of rats, p-Tyr/o-Tyr supplementation was discontinued for four weeks (“washout” period), after which they were sacrificed for HPLC and vasomotor studies.\nThe modified method of Fésüs et al. (Fésüs2007) was used. The distal parts of the vessels were dissected into 2 mm long segments in ice-cold Krebs buffer and rings were mounted on two stainless steel wires (40 μm in diameter) in a Danish Multimyograph Model 610M (DMT-USA Inc., Atlanta, Ga., USA). Vessels were bathed in Krebs buffer (containing 119 mM NaCl, 4.7 mM KCl, 1.2 mM KH2PO4, 25 mM NaHCO3, 1.2 mM Mg2SO4, 11.1 mM glucose, 1.6 mM CaCl2*2H2O, pH 7.4) and gassed with 5% CO2 and 95% O2 at 37° C. The resting tension/internal circumference relationship for each vessel was determined and then the internal circumference was set to 0.9×L100, where L100 is the internal circumference the vessel would have had in vivo when relaxed under a transmural pressure of 100 mmHg After this normalization procedure vessels were allowed to stabilize for 30 min, and then isometric tension was continuously recorded. Rings were preconstricted with 100 nM epinephrine. After reaching a stabile contraction plateau, relaxant responses to increasing doses of insulin were assessed. The rate of relaxation was expressed as percentage of the contraction evoked by epinephrine (100%). Para-, meta-, ortho-tyrosine or vehicle were added to the vessel chamber 10 minutes before the addition of epinephrine and 30 minutes before the addition of insulin."}, "Akt (protein kinase B)": {"test_system": "Akt (protein kinase B)", "assay": "Insulin-induced phosphorylation of Akt in 3T3-L1 adipocytes (Western blot)", "assay_type": "cell-based, mouse", "conditions": "cells grown on m-Tyr or o-Tyr; insulin 200 and 400 nmol/l", "protocol": "as §1\nFollowing the treatment cells were washed twice with Saline (4° C.) to remove any trace of the medium, then exposed to 80 μL lysis buffer/plate, containing 1.15% Triton X, 1M Trisbase, pH 7.4, 0.5 M EDTA, pH 8, 0.2 M EGTA, pH 7, 0.1 M dithiothreitol (DTT), 5 mg/ml phenylmethylsulfonyl fluoride (PMSF), 0.1 M Na3VO4, 5 mg/ml leupeptin, 5 mg/ml aprotinin, Phoshatase Inhibitor Coctail 1 and 2 (Sigma Aldrich, CAT number: P2850 and P5726). Adypocytes were scraped off mechanically and then frozen at −70° C.\nThe samples of EC lysates were sonicated (2 min) and centrifuged (10 min, 13,000 rpm, at 4° C.). Protein content of samples was determined by the Bradford method using bovine serum albumin as a standard Bio-Rad Benchmark Plus. Samples were solubilized in a buffer of 100 mM Tris-HCl (pH 6.8), 4.0% sodium dodecyl sulphate (SDS), 20% glycerol, 200 mM DTT, and 0.2% bromophenol blue. […]\nMembranes were incubated overnight with the immunoglobulin G (IgG) monoclonal antibodies diluted to 1:1000 in TBS-T (0.1%), containing 5% bovine serum (BS). […] Blots were detected using enhanced chemiluminescence (ECL; Pierce Biotech, Bio-Rad, Budapest, Hungary). Computerized densitometry (integrated optical density) of the specific bands was analyzed with Scion Image for Windows Software. […]"}},
  "note": "“Also recorded” adds a separate entry of the source.",
  "data": [
    {"smiles": "N[C@@H](Cc1cccc(O)c1)C(=O)O", "note": "[m-Tyr, Meta-L-tyrosine]", "values": [
      {"measurement": "EPO-dependent Akt phosphorylation", "setting": "Akt (PKB)", "value": "inhibited the normal increase in the Akt phosphorylation"},
      {"measurement": "Insulin-induced glucose uptake at equimolar concentrations with p-Tyr", "setting": "3T3-L1 adipocytes; 72-72 mg/l m-Tyr or o-Tyr and p-Tyr, insulin 400 nM", "value": "fully inhibit insulin-induced glucose uptake; also recorded: insulin had no effect on glucose uptake at all"},
      {"measurement": "Insulin-dependent deoxy-D-glucose uptake", "setting": "3T3-L1 adipocytes; cells grown 11 days on medium with the tyrosine isomer + 5 mM glucose, insulin 2, 20, 200, 400 nM", "value": "no insulin effect could be verified"},
      {"measurement": "Baseline glucose uptake", "setting": "3T3-L1 adipocytes; cells grown on m-Tyr- or o-Tyr-containing medium (72 mg/l) for different time periods, no insulin", "value": "did not show a marked change"},
      {"measurement": "Insulin-induced glucose uptake, time dependence", "setting": "3T3-L1 adipocytes; m-Tyr or o-Tyr 72 mg/l for different time periods, insulin 400 nM, time-dependent manner", "value": "blocked"},
      {"measurement": "Ability to inhibit insulin-induced glucose uptake, dependence on concentration", "setting": "3T3-L1 adipocytes; m-Tyr or o-Tyr 2.25-72 mg/l with p-Tyr 72 mg/l, insulin 400 nM", "value": "concentration-dependent"},
      {"measurement": "Insulin-induced relaxation, abdominal aorta, femoral (and renal) arteries", "setting": "[1]; 4th week, 1.76 mg/die per os, compared to control", "value": "significantly diminished response to insulin"},
      {"measurement": "Insulin-induced relaxation, thoracic aorta", "setting": "[1]; 4th week, 1.76 mg/die per os, compared to control/other groups", "value": "did not observe any significant further decline of response to insulin"},
      {"measurement": "Chronic effects on insulin-induced vasorelaxation after washout", "setting": "[1]; 8th week, 4 weeks washout, all segments", "value": "completely abolished"},
      {"measurement": "Insulin-induced Akt phosphorylation", "setting": "Akt (protein kinase B)", "value": "inhibited the insulin-induced Akt-phosphorylation; also recorded: could not be significantly enhanced by insulin"}
    ]}
  ]
}
